The text below walks through data of patent publication US10081631B2, “2-(1H-indazol-3-yl)-1H-imidazo[4,5-C]pyridine and therapeutic uses thereof” (Samumed, LLC, priority 2014, dated 2018).

The structures appear in SMILES notation.

Common to all, as to format: cell-based
Experiment [1] concerns Wnt activity (Sp5-Luc reporter, SW480 colon carcinoma cells). Nature of the experiment: Screening assay for Wnt activity: Sp5-Luc reporter gene assay in SW480 cells. Conditions: Homo sapiens, 42 h incubation, luminescence. The method, boiled down:
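IC50 values come from variable-slope four-parameter fits of luciferase signal normalized to DMSO wells. Stable Sp5-Luc reporter SW480 colon carcinoma cells were exposed to compounds in a 3-fold dilution series (source plates from 10 mM stock) for forty-two hours at 37 °C.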
In general terms: A reporter such as luciferase makes a cellular process visible.

The test system of experiment [2] is ARPE-19 cells. Nature of the experiment: Transdifferentiation of ARPE-19 cells into eye neuronal cells (PAX6 staining). Conditions: Homo sapiens, 40 hours, PAX6 antibody staining. The procedure: The above synthesized compounds were screened using ARPE-19 cells [a spontaneously arising retinal pigment epithelia (RPE) cell line] to determine their ability to transdifferentiate ARPE-19 into eye neuronal cells [photoreceptors].
ARPE-19 cells are cultured in standard culture medium containing Dulbecco's Modified Eagle's Medium and Ham's F12 Nutrient Mixture (DMEM/F12) mix (1:1)+GlutaMax with 1% penicillin-Streptomycin and 10% FBS (Fetal Bovine Serum). Cells are incubated at 37° C. with 5% CO2. Cells are trypsinized and plated onto 384-well pre-spotted plate at a density of 3000 cells/well in 50 uL of media. Plating media:DMEM/F12 (1:1)+3% charcoal filtered-FBS+GlutaMax+1% pen/Strep. Cells are incubated at 37° C. with 5% CO2. At 40 hours, cells were fixed for 15 min with 10% Buffered Formalin. Cells were then washed 3 times with PBS for 5 min each, permeablize using 0.3% Triton X-100 in 1×PBS for 30 min, block for 1 h with 2% BSA in 1×PBS with 0.1% Triton X-100. The primary antibody (1:100 PAX6 Santa Cruz Biotech; sc-81649) was diluted and 10 μL/well was added to the cells. The cells were incubated overnight at 4° C. The plates were washed 3× with PBS before applying the secondary antibody (goat Anti-mouse 488), shake for 1 h in complete darkness, aspirate secondary, add 10 μL of DAPI (diamidino-2-phenylindole) (1 μg/mL), shake for 10 min. Wash 3× in PBS and scan on Thermo Fisher Scientific cell-Insight CX5. Readings were normalized to DMSO only treated cells, and normalized activities were utilized for EC50 calculations using the dose-response log (activator) vs. response-variable slope (four parameters) nonlinear regression feature available in GraphPad Prism 5.0 or 6.0.

The subject of experiment [3] is primary human fibroblasts derived from IPF patients (LL29 cells). The experiment can be described thus: Inhibition of fibrosis: TGF-β1-treated primary human fibroblasts from IPF patients (LL29), αSMA staining. Conditions: Fibroblast, 96 h, TGF-β1 20 ng/mL, 4 days, % αSMA-positive cells. In outline:
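[…] (0.1% DMSO) on LL29 cells in F12 with 1% FBS, with TGF-β1 (20 ng/mL) added 1 h after plating; 4 days at 37 °C. SYTOX-positive dead cells were excluded and the % αSMA-positive cells was imaged, normalized to TGF-β1/DMSO wells, triplicates; EC50 by non-linear regression.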

Regarding `CN1CCN(c2nccc3[nH]c(-c4n[nH]c5ccc(-c6cnn(C)c6)cc45)nc23)CC1` [Compound 1916, 2-(5-(1-Methyl-1H-pyrazol-4-yl)-1H-indazol-3-yl)-4-(4-methylpiperazin-1-yl)-1H-imidazo[4,5-c]pyridine], the IC50 (commonly the concentration needed to halve the response being measured) in experiment [1] stood at 65 nM. In experiment [2], the EC50 (in general, the concentration that produces a half-maximal response) amounted to 3.7 nM.
As to `Fc1cncc(-c2ccc3[nH]nc(-c4nc5c(N6CCOCC6)nccc5[nH]4)c3c2)c1` [Compound 2275, 4-(2-(5-(5-Fluoropyridin-3-yl)-1H-indazol-3-yl)-1H-imidazo[4,5-c]pyridin-4-yl)morpholine], in experiment [1], the IC50 turned out to be 80 nM. In experiment [2], this compound showed an EC50 of 43.4 nM.
In experiment [1], `CN1CCN(c2nccc3[nH]c(-c4n[nH]c5ccc(-c6cnn(C7CC7)c6)cc45)nc23)CC1` [Compound 2284, 2-(5-(1-Cyclopropyl-1H-pyrazol-4-yl)-1H-indazol-3-yl)-4-(4-methylpiperazin-1-yl)-1H-imidazo[4,5-c]pyridine] had an IC50 of 90 nM. The same compound showed an EC50 in experiment [2] of 6 nM.
In experiment [1], `Fc1cccc(-c2nccc3[nH]c(-c4n[nH]c5ccc(-c6cncc(CN7CCC(F)(F)C7)c6)cc45)nc23)c1` [Compound 25, 2-(5-(5-((3,3-Difluoropyrrolidin-1-yl)methyl)pyridin-3-yl)-1H-indazol-3-yl)-4-(3-fluorophenyl)-1H-imidazo[4,5-c]pyridine] displayed an IC50 of 10 nM. Besides, in experiment [3], the response was half-maximal at 56 nM (EC50).
The matching figures for `Cc1ccc(-c2nccc3[nH]c(-c4n[nH]c5ccc(-c6cncc(CN7CCCCC7)c6)cc45)nc23)s1` [Compound 353, 4-(5-Methylthiophen-2-yl)-2-(5-(5-(piperidin-1-ylmethyl)pyridin-3-yl)-1H-indazol-3-yl)-1H-imidazo[4,5-c]pyridine]: 844 nM and 9 nM.
As for `CCCCC(=O)Nc1cncc(-c2ccc3[nH]nc(-c4nc5c(-c6ccoc6)nccc5[nH]4)c3c2)c1` [Compound 278, N-(5-(3-(4-(Furan-3-yl)-1H-imidazo[4,5-c]pyridin-2-yl)-1H-indazol-5-yl)pyridin-3-yl)pentanamide], the midpoint of inhibition in experiment [1], the IC50, lay at 15 nM. In addition, in experiment [3], the EC50 amounted to 291 nM.
In experiment [1], `Cn1cc(-c2ccc3[nH]nc(-c4nc5c(N6CCOCC6)nccc5[nH]4)c3c2)cn1` [Compound 2280, 4-(2-(5-(1-Methyl-1H-pyrazol-4-yl)-1H-indazol-3-yl)-1H-imidazo[4,5-c]pyridin-4-yl)morpholine] registered a 50% inhibitory concentration (IC50) of 15 nM. A half-maximal response in experiment [2] (EC50) required 2 nM.
In experiment [1], `Cc1ccncc1-c1ccc2[nH]nc(-c3nc4c(-c5ccsc5)nccc4[nH]3)c2c1` [Compound 239, 2-(5-(4-Methylpyridin-3-yl)-1H-indazol-3-yl)-4-(thiophen-3-yl)-1H-imidazo[4,5-c]pyridine] registered an IC50 of 3 nM. For the same compound, the EC50 in experiment [3] is 60 nM.
For the compound `Fc1cccc(-c2nccc3[nH]c(-c4n[nH]c5ccc(-c6cncc(OC7CCCCC7)c6)cc45)nc23)c1` [Compound 1775, 2-(5-(5-(Cyclohexyloxy)pyridin-3-yl)-1H-indazol-3-yl)-4-(3-fluorophenyl)-1H-imidazo[4,5-c]pyridine], it took 252 nM to reach half-maximal inhibition in experiment [1] (IC50). This compound displayed a concentration giving a half-maximal response (EC50) in experiment [3] of 9 nM.
In experiment [1], `CC(C)C(=O)Nc1cncc(-c2ccc3[nH]nc(-c4nc5c(-c6cccs6)nccc5[nH]4)c3c2)c1` [Compound 295, N-(5-(3-(4-(Thiophen-2-yl)-1H-imidazo[4,5-c]pyridin-2-yl)-1H-indazol-5-yl)pyridin-3-yl)isobutyramide] returned an IC50 of 30.8 nM. The compound also returned an EC50 in experiment [3] of 186 nM.
